According to patent US20150034084A1, “[…] NITRIC OXIDE FOR TREATING RESPIRATORY DISEASES” (Advanced Inhalation Therapies (AIT) Ltd., priority 2012, published 2015):
Where two headings read alike, the source gives them in different places.

What was measured:
[1] = Phase I safety study: hematology, clinical chemistry, coagulation; assay type: in vivo, human
Procedure: (§1) After obtaining informed consent, treatment was initiated within 5 days of enrollment. Subjects were housed in a hospital ward and received 160 ppm gNO for 30 minutes every four hours (Q4h), five times a day, for five consecutive days by inhalation. Subjects returned for follow-up evaluations 3, 7 and 21 days after the final gNO administration. Subject safety was determined by monitoring vital signs, methemoglobin levels, lung function, blood chemistry, hematology, prothrombin time, inflammatory cytokine/chemokines levels and endothelial activation. These parameters were compared to baseline and at various time-points during and after gNO administration.
(§2) Hematological assessment included a complete blood count and differentials (hemoglobin, hematocrit, red blood cell count, white blood cell count, white blood cell differential, and platelet count) were obtained in order to monitor blood chemistry, hematology and inflammation measurements. The blood chemistry profile included serum creatinine, and liver function tests such as aspartate aminotransferase (AST) serum glutamic oxaloacetic transaminase (SGOT), alkaline phosphatase, and gamma-glutamyl transferase (GGT). The effect of gNO on coagulation was determined by the prothrombin time (PT) and its derived measures of prothrombin ratio (PR) and international normalized ratio (INR). Heparinized plasma was collected at baseline and on days 1, 2, 4, and 5 of gNO administration, and on follow-up days 3, 7 and 21 and frozen at −80° C. Plasma cytokine levels were assessed using the human inflammation cytokine bead array kit (BD Bioscience, Canada). Plasma levels of angiopoietin Ang-1 and Ang-2 were determined by ELISA (R&D Systems, USA).

S. aureus (Clinical) = conditions: 200 ppm gNO, saline; cited from earlier work
Mycobacterium = conditions: 200 ppm gNO, saline; cited from earlier work
S. aureus (ATCC) = conditions: 200 ppm gNO, saline; cited from earlier work
Ang-1 and Ang-2 = test: Phase I safety study: plasma angiopoietins (vascular endothelial activation); assay type: in vivo, human; conditions: 160 ppm gNO inhalation
Procedure: as §1, §2
(§3) To assess whether gNO inhalation may cause inflammation or endothelial activation cytokines and the vascular endothelium activation factors Ang-1 and Ang-2 were quantified in peripheral plasma at baseline at various time points thereafter.

[2] = test system: human respiratory syncytial virus (rgRSV30); test: RSV exposure to 160 ppm gNO for 30 minutes, plaque/fluorescence assay; assay type: cell-based; conditions: single 30 minutes exposure to 160 ppm gNO
[3] = OSHA / Environmental Protection Agency; cited from earlier work
[4] = in vivo; cited from earlier work
[5] = rats, cited from earlier work
S. aureus = conditions: cited from earlier work
MRSA = conditions: 200 ppm gNO, saline; cited from earlier work
[6] = test system: chronic, non-healing wound; conditions: topical 200 ppm gNO, cited from earlier work
[7] = Phase I safety study: inspiratory NO2 level during gNO delivery; design: species or system human; conditions: inspired gas at mouthpiece
Procedure: Subjects were administered gNO through a modified disposable mouthpiece to maximize mixing. Inspiration was spontaneously initiated by the subject from a conventional intermittent positive pressure breathing respirator (Mark-7, Carefusion, USA) in fixed flow mode delivering 48 liters per minute (LPM). Flows of gas were verified with a calibrated mass flow meter (TSI, USA). Gaseous nitric oxide (gNO, obtained at INOmax, Ikaria, USA) at a concentration of 800 ppm delivered at a flow of 12 LPM was titrated into a distal delivery port on the mouth piece connected to the respirator during inspiratory phase only (pressure switch). The Mark 7 respirator was supplied by an air/oxygen blender (Bird Sentry, Carefusion, USA) set to deliver 26% oxygen.
The levels of gNO, NO2, O2 and methemoglobin were monitored during the administration of gNO. The target gas mixture was 160 ppm gNO with a nitrogen dioxide (NO2) level of less than 5 ppm and an oxygen (O2) level ranging from 21% to 25%. Inspiratory NO, NO2 and O2 levels were continuously monitored by sampling from the mouthpiece sample port located about 6 millimeters from the mouth of the subject with an AeroNOx (Pulmonox, AB, Canada) NO, NO2 and O2 electrochemical analyzer. Delivery safety was determined by the number of occasions that NO2 exceeded 5 ppm, gNO exceeding 10% variation and O2 dropping below 20% during gNO administration. […]

[8] = test system: bovine respiratory disease; conditions: intermittent 30 minute exposures of gNO, cattle; cited from earlier work
inflammatory cytokines = test: Phase I safety study: plasma cytokines by cytometric bead array; assay type: in vivo, human; conditions: 160 ppm gNO inhalation
Procedure: as §1, §2, §3

MRSA biofilm = conditions: 200 ppm gNO for eight hours (1,600 ppm hours); cited from earlier work
[9] = Phase I safety study: serum nitrite/nitrate by Griess reagent; assay type: in vivo, human; conditions: during the trial, 160 ppm gNO
Procedure: as §1
These parameters were measured continuously during every gNO administration course and for 3.5 hours after the first treatment of the day. Daily serum samples were collected and frozen at −80° C. and the serum […] level was measured using the Griess reagent.

Enterobacter sp. = conditions: 200 ppm gNO, saline; cited from earlier work

For `[N]=O` [gNO, nitric oxide], the “eosinophil cell numbers, end of study” value ([1]; baseline 0.15 giga/L, p=0.104) was 0.19 giga/L, the “blood coagulation parameters, clinical chemistry and hematological parameters” value ([1]; baseline to completion of day 5) was “no statistically, nor clinically significant changes” and the “neutrophil cell numbers, end of study” value ([1]; baseline value of zero, p=0.169) was 0.01 giga/L. For the same compound, the LD100 (S. aureus (Clinical)) was 4 h, the “Latent Period” value (S. aureus (Clinical)) was 3 h and the “−2.5 Log10” value (S. aureus (Clinical)) was 3.7 hours. For the same compound, the LD100 (Mycobacterium) was 10 h, the “Latent Period” value (Mycobacterium) was 7 h and the “−2.5 Log10” value (Mycobacterium) was 9.2 hours. The LD100 (S. aureus (ATCC)) was 4 h, the “Latent Period” value (S. aureus (ATCC)) was 3 h and the “−2.5 Log10” value (S. aureus (ATCC)) was 3.3 hours. For the same compound, the Ang-2/Ang-1 ratio (Ang-1 and Ang-2) was “not affected”, the “plasma Ang-1” value (Ang-1 and Ang-2) was “unaffected” and the “plasma Ang-2” value (Ang-1 and Ang-2) was “not affected”. For the same compound, the viral viability ([2]; starting level 500 PFU) was “substantially nullified”, the “reduction of virus viability (factor)” value ([2]; starting level 1000 PFU) was ~10 and the “reduction of virus viability (factor)” value ([2]; starting level 2000 PFU) was ~10. The “inhalation threshold limit value (TLV) as a time-weighted average (TWA)” value [3] was 25 ppm, the “half-life in the body” value [4] was “less than 6 seconds” and the “nitrate excreted in the urine, share of the nitric oxide dose inhaled” value [4] was “more than 70%”. The mortality ([5]; 300 ppm gNO, groups of 10, first 1-2 days) was “Six of the animals”, the mortality ([5]; 400 ppm gNO, 6 hours per day) was “all of the animals died on the first day” and the MetHb level ([5]; 400 ppm gNO) was 72.5 percents. The mortality ([5]; 500 ppm gNO, 6 hours per day) was “all of the animals died on the first day”, the MetHb level ([5]; 500 ppm gNO) was 67 percents and the “survival (downward bactericidal trend towards)” value (S. aureus; 50-160 ppm gNO, solid media, vs medical air) was 5-10%. The “reduction of colony formation” value (S. aureus; gNO greater than 120 ppm, agar plates) was “greater than 90%”, the “time required to achieve the >90% reduction of colony formation” value (S. aureus; gNO greater than 120 ppm) was 8 to 12 h and the LD100 (MRSA) was 5 h. The “Latent Period” value (MRSA) was 3 h, the “−2.5 Log10” value (MRSA) was 4.2 hours and the “reduction of wound size” value ([6]; at one week) was 42%. For the same compound, the biofilm on wound ([6]; within the first three days of treatment) was “no longer visibly present”, the “highest NO2 level recorded during the treatments” value ([7]; 160 ppm gNO) was 2.8 ppm and the “mean NO2 level” value ([7]; 95% confidence level 2.17-2.47 ppm) was 2.32 ppm. For the same compound, the “clinical symptoms of bovine respiratory disease” value [8] was “decrease the clinical symptoms”, the “plasma IL-1b level versus baseline” value (inflammatory cytokines) was “unaffected” and the “plasma IL-6 level versus baseline” value (inflammatory cytokines) was “unaffected”. For the same compound, the “plasma IL-8 level versus baseline” value (inflammatory cytokines) was “unaffected”, the “plasma IL-10 level versus baseline” value (inflammatory cytokines) was “unaffected” and the “plasma IL-12p70 level versus baseline” value (inflammatory cytokines) was “unaffected”. The “plasma TNF level versus baseline” value (inflammatory cytokines) was “unaffected”, the MRSA in biofilm (MRSA biofilm) was “shown to reduce MRSA” and the “serum nitrite/nitrate levels versus baseline” value [9] was “no significant differences”. For the same compound, the LD100 (Enterobacter sp.) was 6 h, the “Latent Period” value (Enterobacter sp.) was 4 h and the “−2.5 Log10” value (Enterobacter sp.) was 5.3 hours.
